The record followed here is PubChem BioAssay AID1745844 (Carcinogenic Potency Database (CPDB), 2022).

The data set deals with rodent lifetime carcinogenesis bioassay, tumor incidence TD50. In words: carcinogenic potency in animals, long-term in vivo studies, CPDB compilation (AID 1745844).

Activity calls are given as the source filed them. How the calls were made is not given here.

With `CCCCCCCCCCC(C)c1ccc(S(=O)(=O)O)cc1` (centres undefined), the carcinogen call by setting is: (rat, strain Slc-Wistar, females, in feed, site: preputial gland, lesion: several types, types named in the paper, dosed 142 weeks, study length 148 weeks) “negative (inactive)”; (rat, strain Slc-Wistar, males, in feed, site: preputial gland, lesion: several types, types named in the paper, dosed 127 weeks, study length 139 weeks) “negative (inactive)”.
As to `Cc1ccc(S(=O)(=O)OCCN(C)N=O)cc1`, the TD50 runs as follows: (rat, strain Fischer 344, females, by gavage, site: liver, lesion: hemangiosarcoma, dosed 121 weeks, study length 121 weeks) 12.8 mg/kg/day; (rat, strain Fischer 344, females, by gavage, site: liver, lesion: hepatocellular carcinoma, dosed 121 weeks, study length 121 weeks) 7.55 mg/kg/day; (rat, strain Fischer 344, females, by gavage, site: liver, lesion: neoplastic nodule, dosed 121 weeks, study length 121 weeks) 22.3 mg/kg/day; (rat, strain Fischer 344, females, by gavage, site: liver, lesion: several types, types named in the paper, dosed 121 weeks, study length 121 weeks) 3.47 mg/kg/day; (rat, strain Fischer 344, males, by gavage, site: liver, lesion: hemangiosarcoma, dosed 121 weeks, study length 121 weeks) 11.8 mg/kg/day; (rat, strain Fischer 344, males, by gavage, site: liver, lesion: hepatocellular carcinoma, dosed 121 weeks, study length 121 weeks) 32.2 mg/kg/day. Besides, the TD50 runs as follows: (rat, strain Fischer 344, males, by gavage, site: liver, lesion: neoplastic nodule, dosed 121 weeks, study length 121 weeks) 12.6 mg/kg/day; (rat, strain Fischer 344, males, by gavage, site: liver, lesion: several types, types named in the paper, dosed 121 weeks, study length 121 weeks) 7.79 mg/kg/day; (rat, strain Fischer 344, males, by gavage, site: pituitary gland, lesion: adenoma, dosed 121 weeks, study length 121 weeks) 11.1 mg/kg/day; (rat, strain Fischer 344, males, by gavage, site: testis, lesion: interstitial-cell tumor, dosed 121 weeks, study length 121 weeks) 11.1 mg/kg/day.
Regarding `Cc1ccc(OP(=O)(Oc2ccc(C)cc2)Oc2ccc(C)cc2)cc1`, the carcinogen call is “negative (inactive)” (mouse, strain B6C3F1, females, in feed, site: any site (literature study), lesion: several types, types named in the paper, dosed 104 weeks, study length 105 weeks) and “negative (inactive)” (rat, strain Fischer 344, males, in feed, site: any site (literature study), lesion: several types, types named in the paper, dosed 104 weeks, study length 104 weeks). The TD50 (mouse, strain B6C3F1, females, in feed, site: lung, lesion: alveolar/bronchiolar adenoma + alveolar/bronchiolar carcinoma, dosed 104 weeks, study length 105 weeks) stood at 2310 mg/kg/day; the TD50 (mouse, strain B6C3F1, males, in feed, site: Harderian gland, lesion: adenoma, dosed 104 weeks, study length 105 weeks) is 184 mg/kg/day (inactive); the TD50 (mouse, strain B6C3F1, males, in feed, site: any site (literature study), lesion: several types, types named in the paper, dosed 104 weeks, study length 105 weeks) stood at 159 mg/kg/day; the TD50 (mouse, strain B6C3F1, males, in feed, site: liver, lesion: hepatocellular adenoma + hepatoblastoma + hepatocellular carcinoma, dosed 104 weeks, study length 105 weeks) is 968 mg/kg/day; the TD50 (mouse, strain B6C3F1, males, in feed, site: lung, lesion: alveolar/bronchiolar adenoma + alveolar/bronchiolar carcinoma, dosed 104 weeks, study length 105 weeks) is 187 mg/kg/day; the TD50 (rat, strain Fischer 344, females, in feed, site: all sites, lesion: mononuclear-cell leukemia, dosed 104 weeks, study length 104 weeks) is 35 mg/kg/day (inactive). Moreover, the TD50 was 21.6 mg/kg/day (rat, strain Fischer 344, females, in feed, site: any site (literature study), lesion: several types, types named in the paper, dosed 104 weeks, study length 104 weeks) and 143 mg/kg/day (rat, strain Fischer 344, males, in feed, site: liver, lesion: hepatocellular adenoma + hepatoblastoma + hepatocellular carcinoma, dosed 104 weeks, study length 104 weeks).
`CN1CCC[C@H]1c1cccnc1`: the carcinogen call was “negative (inactive)” (mouse, strain Swiss albino, females, in drinking water, site: liver, lesion: several types, types named in the paper, dosed 121 weeks, study length 123 weeks); “negative (inactive)” (mouse, strain Swiss albino, males, in drinking water, site: liver, lesion: several types, types named in the paper, dosed 114 weeks, study length 120 weeks); “negative (inactive)” (mouse, strain Swiss albino, males, in drinking water, site: lung, lesion: one or several types, types not named, dosed 114 weeks, study length 120 weeks); “negative (inactive)” (rat, strain Sprague-Dawley, females, i.p., site: any site (literature study), lesion: malignant tumor, dosed 104 weeks, study length 104 weeks). Besides, the TD50 is 11100 mg/kg/day (inactive) (mouse, strain Swiss albino, females, in drinking water, site: lung, lesion: one or several types, types not named, dosed 121 weeks, study length 123 weeks) and 6.38 mg/kg/day (inactive) (rat, strain Sprague-Dawley, males, i.p., site: any site (literature study), lesion: malignant tumor, dosed 104 weeks, study length 104 weeks).
As to `C=CCNN`, the TD50 reads like this: (mouse, strain Swiss albino, females, in drinking water, site: blood vessels, lesion: angioma, dosed 105 weeks, study length 105 weeks) 163 mg/kg/day; (mouse, strain Swiss albino, females, in drinking water, site: blood vessels, lesion: several types, types named in the paper, dosed 105 weeks, study length 105 weeks) 119 mg/kg/day; (mouse, strain Swiss albino, females, in drinking water, site: liver, lesion: several types, types named in the paper, dosed 105 weeks, study length 105 weeks) 234 mg/kg/day; (mouse, strain Swiss albino, females, in drinking water, site: lung, lesion: adenocarcinoma, dosed 105 weeks, study length 105 weeks) 96 mg/kg/day; (mouse, strain Swiss albino, females, in drinking water, site: lung, lesion: adenoma, dosed 105 weeks, study length 105 weeks) 46.1 mg/kg/day; (mouse, strain Swiss albino, females, in drinking water, site: lung, lesion: several types, types named in the paper, dosed 105 weeks, study length 105 weeks) 38.4 mg/kg/day. The TD50 is 274 mg/kg/day (inactive) (mouse, strain Swiss albino, males, in drinking water, site: liver, lesion: hepatoma, dosed 93 weeks, study length 93 weeks); 28.9 mg/kg/day (mouse, strain Swiss albino, males, in drinking water, site: lung, lesion: adenoma, dosed 93 weeks, study length 93 weeks); 30.9 mg/kg/day (mouse, strain Swiss albino, males, in drinking water, site: lung, lesion: several types, types named in the paper, dosed 93 weeks, study length 93 weeks).
Turning to `CC=CC(=O)Oc1c(C(C)CCCCCC)cc([N+](=O)[O-])cc1[N+](=O)[O-]` (centres undefined), the carcinogen call was “negative (inactive)” (mouse, strain B6AKF1, females, oral dosing, site: any site (literature study), lesion: several types, types named in the paper, dosed 76 weeks, study length 76 weeks); “negative (inactive)” (mouse, strain B6AKF1, females, oral dosing, site: liver, lesion: hepatoma, dosed 76 weeks, study length 76 weeks); “negative (inactive)” (mouse, strain B6AKF1, females, oral dosing, site: lung, lesion: adenoma, dosed 76 weeks, study length 76 weeks); “negative (inactive)” (mouse, strain B6C3F1, females, oral dosing, site: lung, lesion: several types, types named in the paper, dosed 76 weeks, study length 76 weeks); “negative (inactive)” (mouse, strain B6C3F1, males, oral dosing, site: lung, lesion: several types, types named in the paper, dosed 76 weeks, study length 76 weeks). In addition, the TD50 was 11.9 mg/kg/day (inactive) (mouse, strain B6AKF1, males, oral dosing, site: any site (literature study), lesion: several types, types named in the paper, dosed 76 weeks, study length 76 weeks); 2.07 mg/kg/day (inactive) (mouse, strain B6AKF1, males, oral dosing, site: liver, lesion: hepatoma, dosed 76 weeks, study length 76 weeks); 19.1 mg/kg/day (inactive) (mouse, strain B6AKF1, males, oral dosing, site: lung, lesion: adenoma, dosed 76 weeks, study length 76 weeks); 1.21 mg/kg/day (inactive) (mouse, strain B6C3F1, females, oral dosing, site: any site (literature study), lesion: several types, types named in the paper, dosed 76 weeks, study length 76 weeks); 2.5 mg/kg/day (inactive) (mouse, strain B6C3F1, females, oral dosing, site: liver, lesion: hepatoma, dosed 76 weeks, study length 76 weeks); 0.405 mg/kg/day (inactive) (mouse, strain B6C3F1, males, oral dosing, site: any site (literature study), lesion: several types, types named in the paper, dosed 76 weeks, study length 76 weeks). For the same compound, under “mouse, strain B6C3F1, males, oral dosing, site: liver, lesion: hepatoma, dosed 76 weeks, study length 76 weeks”, the TD50 is 2.32 mg/kg/day (inactive).
Turning to `CC(=O)Nc1ccc(-c2ccc(F)cc2)cc1`, the TD50 (rat, strain Fischer 344, males, in feed, site: kidney, lesion: adenocarcinoma, dosed 52 weeks, study length 52 weeks) was 1.01 mg/kg/day.
As for `CC(=O)CNCC(O)C(O)N=O` (centres undefined), the TD50 was 0.754 mg/kg/day (hamster, strain Syrian Golden, females, by gavage, site: forestomach, lesion: several types, types named in the paper, dosed 35 weeks, study length 55 weeks); 0.868 mg/kg/day (hamster, strain Syrian Golden, females, by gavage, site: forestomach, lesion: squamous-cell papilloma, dosed 35 weeks, study length 55 weeks); 9.92 mg/kg/day (hamster, strain Syrian Golden, females, by gavage, site: liver, lesion: hepatocellular adenoma, dosed 35 weeks, study length 55 weeks); 20.4 mg/kg/day (hamster, strain Syrian Golden, females, by gavage, site: liver, lesion: hepatocellular carcinoma, dosed 35 weeks, study length 55 weeks); 9.92 mg/kg/day (hamster, strain Syrian Golden, females, by gavage, site: liver, lesion: several types, types named in the paper, dosed 35 weeks, study length 55 weeks); 20.4 mg/kg/day (hamster, strain Syrian Golden, females, by gavage, site: lung, lesion: carcinoma, dosed 35 weeks, study length 55 weeks). Further, the TD50 (hamster, strain Syrian Golden, females, by gavage, site: pancreatic duct, lesion: several types, types named in the paper, dosed 35 weeks, study length 55 weeks) was 3.63 mg/kg/day; the TD50 (rat, strain Fischer 344, females, in drinking water, site: esophagus, lesion: carcinoma, dosed 31 weeks, study length 55 weeks) was 0.0637 mg/kg/day; the TD50 (rat, strain Fischer 344, females, in drinking water, site: esophagus, lesion: several types, types named in the paper, dosed 31 weeks, study length 55 weeks) was 0.0352 mg/kg/day; the TD50 (rat, strain Fischer 344, females, in drinking water, site: forestomach, lesion: carcinoma, dosed 31 weeks, study length 55 weeks) was 0.155 mg/kg/day; the TD50 (rat, strain Fischer 344, females, in drinking water, site: forestomach, lesion: several types, types named in the paper, dosed 31 weeks, study length 55 weeks) is 0.0482 mg/kg/day; the TD50 (rat, strain Fischer 344, females, in drinking water, site: liver, lesion: hepatocellular carcinoma, dosed 31 weeks, study length 55 weeks) was 1.3 mg/kg/day (inactive). For the same compound, the TD50 is, setting by setting: (rat, strain Fischer 344, females, in drinking water, site: tongue, lesion: carcinoma, dosed 31 weeks, study length 55 weeks) 0.0964 mg/kg/day; (rat, strain Fischer 344, females, in drinking water, site: tongue, lesion: several types, types named in the paper, dosed 31 weeks, study length 55 weeks) 0.0555 mg/kg/day.

For orientation: TD50 means the dose at which the toxic effect under study appears in half of the subjects.
